Key:
Type in all cases: in vivo, human
[1] = system: expert panel of seven people; test: Scoring of sweet taste aspects versus base solution (5% sucrose and 0.03% citric acid); settings: for Astringent, average score / Lingering Sweet, average score / Overall Sweet, average score / Upfront Sweet, average score / Volatile Off-Note, average score: score versus base, 0 same, 3 much higher, −3 much lower
[2] = system: Four sweet sensitive panelists; test: Iso-sweet potency versus standard sucrose solutions; settings: for Iso-sweet potency: calculated from mean sweet equivalence concentrations
Protocol: 10 mg iso-mogroside VI (FIG. 7) was dissolved in […] water to make 100 ppm iso-mogroside VI solution. The working solution of 11-epi-mogroside V (FIG. 8) was 374 ppm (9.34 mg 11-epi-mogroside V in 25 mL water), A series of standard sucrose solutions were prepared (0.50, 0.75, 1.00, 1.25, 1.50%) as sweetness references.
Four sweet sensitive panelists evaluated 100 ppm iso-mogroside VI and 374 ppm 11-epi-mogroside V and the sucrose standards, and were asked to give sweet equivalence concentrations to sucrose. The mean sweet equivalence concentrations of each compound were used to calculate the iso-sweet potency.

[3] = system: sweet sensitive taste panel; test: Sweetness ranking against sucrose solutions to determine sucrose equivalence; settings: Table 10, 7 panelists
Excerpt: The term “sucrose equivalence” refers to the equivalence in sweetness of a composition containing at least one non-sucrose sweetener to a reference sucrose solution. Typically, taste panellists are trained to detect sweetness of reference sucrose solutions containing between 1% and 15% sucrose (w/v). Other non-sucrose sweeteners may then be tasted at a series of dilutions to determine the concentration of the non-sucrose sweetener that is as sweet (i.e. isosweet) to a given sucrose reference. The term “isosweet” refers to compositions that have equivalent sweetness. Typically, the sweetness of a given composition is measured with reference to a solution of sucrose. See “A Systematic Study of Concentration-Response Relationships of Sweeteners,” G. E. DuBois, D. E. Walters, S. S. Schiffman, Z. S. Warwick, B. J. Booth, S. D. Pecore, K. Gibes, B. T. Carr, and L. M. Brands, in Sweeteners: Discovery, Molecular Design and Chemoreception, D. E. Walters, F. T. Orthoefer, and G. E. DuBois, Eds., American Chemical Society, Washington, D.C. (1991), pp 261-276.
A sweet sensitive taste panel ranked the sweetness of solutions of a mixture of sweeteners (“Mixture 1”) in relation to sucrose solutions at a range of concentrations to determine sucrose equivalence. Mixture 1 was a combination of fractions 11 to 18 of Example 2 and contained 8.16 wt % 11-O-mogroside V and 61.6 wt % mogroside V. The results are shown in Table 6 below.
A sweet sensitive taste panel ranked the sweetness of solutions of various sweeteners (mogroside V, mogroside IV, siamenoside, neomogroside, 11-O-mogroside V) in relation to sucrose solutions at a range of concentrations to determine sucrose equivalence. The sweeteners were obtained using an Agilent 1100 preparative HPLC system with a Phenomenex Luna C18 (2) column (5 μm, 210×21.4 mm).

[4] = system: sweet sensitive taste panel; test: Sweetness enhancement: sweetener added to 5% (w/v) sucrose, ranked against 5, 6, 6.5 and 7% (w/v) sucrose solutions; settings: 30 ppm in 5% (w/v) sucrose; ranked against 5, 6, 6.5 and 7% sucrose
Protocol: This solution was then ranked against 5, 6, 6.5 and 7% (w/v) sucrose solutions. This was repeated for 45 ppm Luo Han Guo extract. The average score of each solution was determined. […] These solutions were then ranked against 5, 6, 6.5 and 7% (w/v) sucrose solutions. The average score of each solution was determined.

[5] = system: expert panel of three people (trained flavourists); test: Descriptive taste test in 5% sucrose and 0.03% citric acid compared to Luo Han Guo extract
Protocol: (§1) The taste of various concentrations of mixture 1 was tested by an expert panel of three people (trained flavourists) in solutions containing 5% sucrose and 0.03% citric acid. The taste was compared to the Luo Han Guo extract used in Example 2 (obtained from Azile LCC (Rolling Hills Est, California) (extract 1 of Example 1 above) and containing about 68 wt % mogrosides) (combined with the same 5% sucrose and 0.03% citric acid solution).
as §1, with “these sweeteners” for “various concentrations of mixture 1”, “mogrosides).” for “mogrosides) (combined with the same 5% sucrose and 0.03% citric acid solution).”

3-O-β-D-glucopyranosyl(1→6)-β-D-glucopyranosyl-mogrol-24-O-β-D-glucopyranosyl-(1→6-[β-D-glucopyranosyl-(1→4)-β-D-glucopyranosyl-(1→2)]-β-D-glucopyranosyl [iso-mogroside VI]
Comments ([1]; Table 20, 25 ppm in 5% sucrose and 0.03% citric acid): Slightly acidic
Astringent, average score ([1]; Table 20, 25 ppm): 0
Lingering Sweet, average score ([1]; Table 20, 25 ppm): 0.2
Overall Sweet, average score ([1]; Table 20, 25 ppm): 0.2
Upfront Sweet, average score ([1]; Table 20, 25 ppm): 0.2
Volatile Off-Note, average score ([1]; Table 20, 25 ppm): 0
Sweet equivalence concentration to sucrose ([2]; 100 ppm in water): 0.91 % sucrose
Iso-sweet potency [2]: 91 times of sweetness of sucrose

C[C@H](CC[C@@H](O[C@@H]1O[C@H](CO[C@@H]2O[C@H](CO)[C@@H](O)[C@H](O)[C@H]2O)[C@@H](O)[C@H](O)[C@H]1O[C@@H]1O[C@H](CO)[C@@H](O)[C@H](O)[C@H]1O)C(C)(C)O)[C@H]1CC[C@@]2(C)[C@@H]3CC=C4[C@@H](CC[C@H](O[C@@H]5O[C@H](CO[C@@H]6O[C@H](CO)[C@@H](O)[C@H](O)[C@H]6O)[C@@H](O)[C@H](O)[C@H]5O)C4(C)C)[C@]3(C)[C@@H](O)C[C@]12C [11-epi-mogroside V, 3-O-β-D-glucopyranosyl(1→6)-β-D-glucopyranosyl-11β-OH-mogrol-24-O-β-D-glucopyranosyl-(1→2)-[β-D-glucopyranosyl-(1→6)]-β-D-glucopyranosyl]
Astringent, average score ([1]; Table 20, 25 ppm): 0
Lingering Sweet, average score ([1]; Table 20, 25 ppm): 0
Overall Sweet, average score ([1]; Table 20, 25 ppm): 0.17
Upfront Sweet, average score ([1]; Table 20, 25 ppm): 0.33
Volatile Off-Note, average score ([1]; Table 20, 25 ppm): 0
Sweet equivalence concentration to sucrose ([2]; 374 ppm in water): 1.31 % sucrose
Iso-sweet potency [2]: 35 times of sweetness of sucrose

C[C@H](CC[C@@H](O[C@@H]1O[C@H](CO)[C@@H](O)[C@H](O)[C@H]1O[C@@H]1O[C@H](CO)[C@@H](O)[C@H](O)[C@H]1O)C(C)(C)O)[C@H]1CC[C@@]2(C)[C@H]3CC=C4[C@@H](CC[C@H](O[C@@H]5O[C@H](CO[C@@H]6O[C@H](CO)[C@@H](O)[C@H](O)[C@H]6O)[C@@H](O)[C@H](O)[C@H]5O)C4(C)C)[C@]3(C)[C@H](O)C[C@]12C [Mogroside IV]
Total of sweetness ranks ([3]; 25 ppm Mogroside IV): 13
Total of sweetness ranks ([3]; 30 ppm Mogroside IV): 20
Average Score [4]: 6.2
Taste description ([5]; added to 5% sucrose and 0.03% citric acid): good and similar sweetness as mogroside V
Sweet quality compared to Luo Han Guo extract ([5]; in 5% sucrose and 0.03% citric acid): better than Luo Han Guo extract in terms of sweet quality
Astringent, average score ([1]; Table 16, 30 ppm): 0
Lingering Sweet, average score ([1]; Table 16, 30 ppm): 0
Overall Sweet, average score ([1]; Table 16, 30 ppm): 0.4
Upfront Sweet, average score ([1]; Table 16, 30 ppm): 0.4
Volatile Off-Note, average score ([1]; Table 16, 30 ppm): 0

— patent US20200345049A1, “COMPOSITIONS” (Givaudan, S.A., priority 2017, published 2020)
